From ChEMBL document CHEMBL1201862, “PubChem BioAssay data set” (2004) come the findings set out here.

Activity calls are given as the source filed them. Bounds are passed on as bounds.

Test [1] addresses T1, Heat shock factor protein 1 (Mus musculus, UniProt P38532).
T1 sequence (P38532 whole entry): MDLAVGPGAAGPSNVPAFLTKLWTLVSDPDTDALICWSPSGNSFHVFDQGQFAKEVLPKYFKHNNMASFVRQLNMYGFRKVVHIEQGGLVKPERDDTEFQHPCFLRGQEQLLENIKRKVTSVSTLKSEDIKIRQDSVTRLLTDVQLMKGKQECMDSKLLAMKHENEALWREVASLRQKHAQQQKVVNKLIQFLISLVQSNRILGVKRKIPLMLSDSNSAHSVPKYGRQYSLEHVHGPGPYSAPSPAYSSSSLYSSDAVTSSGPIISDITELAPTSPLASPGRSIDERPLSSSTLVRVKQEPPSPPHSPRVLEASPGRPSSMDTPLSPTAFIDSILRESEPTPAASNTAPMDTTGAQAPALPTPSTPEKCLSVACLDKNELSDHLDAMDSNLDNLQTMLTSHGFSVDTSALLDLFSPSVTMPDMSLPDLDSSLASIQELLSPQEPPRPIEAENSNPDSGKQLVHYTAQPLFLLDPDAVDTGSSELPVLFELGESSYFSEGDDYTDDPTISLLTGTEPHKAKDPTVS
The test is described as follows: decrease of HSF1-responsive luciferase luminescence – cell-based, NIH3T3, dose retest, confirmation (AID 2382).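 Further: NIH3T3 fibroblasts with HSF1-driven luciferase reporter stressed by proteasome inhibitor MG132; luminescence from HSF1-driven luciferase expression after 8 hours of MG132 stress.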 The class given is functional.

The target in test [2] is 5-hydroxytryptamine receptor 5A (Homo sapiens, UniProt P47898). The test is described as follows: Counterscreen for agonists of OPRM1-OPRD1 heterodimerization: luminescence-based cell-based high throughput dose response assay to identify agonists of 5-hydroxytryptamine (serotonin) 5A receptor (HTR5A). [Related pubchem assays (depositor defined):AID504326, AID504355, AID504692, AID504904, AID504905]. The format is functional.

A further test addresses Mu-type opioid receptor (Homo sapiens, UniProt P35372). The test is described as follows: Counterscreen for agonists of heterodimerization of the mu 1 (OPRM1) and delta 1 (OPRD1) opioid receptors: Luminescence-based cell-based high throughput dose response assay to identify agonists of OPRM1 homodimerization. The class given is functional. For orientation: The purpose of a counterscreen is to sort out artefacts and off-target activity.

Test [3] addresses Delta-type opioid receptor (Homo sapiens, UniProt P41143). Briefly: Counterscreen for agonists of heterodimerization of the mu 1 (OPRM1) and delta 1 (OPRD1) opioid receptors: Luminescence-based cell-based high throughput dose response assay to identify agonists of OPRD1 homodimerization. [Related pubchem assays (depositor defined):AID504326, AID504355, AID504692, AID504904, AID504905]. The class given is functional.

Test [4] concerns the target T2, Short transient receptor potential channel 4 (Mus musculus, UniProt Q9QUQ5).
T2 sequence (Q9QUQ5 whole entry): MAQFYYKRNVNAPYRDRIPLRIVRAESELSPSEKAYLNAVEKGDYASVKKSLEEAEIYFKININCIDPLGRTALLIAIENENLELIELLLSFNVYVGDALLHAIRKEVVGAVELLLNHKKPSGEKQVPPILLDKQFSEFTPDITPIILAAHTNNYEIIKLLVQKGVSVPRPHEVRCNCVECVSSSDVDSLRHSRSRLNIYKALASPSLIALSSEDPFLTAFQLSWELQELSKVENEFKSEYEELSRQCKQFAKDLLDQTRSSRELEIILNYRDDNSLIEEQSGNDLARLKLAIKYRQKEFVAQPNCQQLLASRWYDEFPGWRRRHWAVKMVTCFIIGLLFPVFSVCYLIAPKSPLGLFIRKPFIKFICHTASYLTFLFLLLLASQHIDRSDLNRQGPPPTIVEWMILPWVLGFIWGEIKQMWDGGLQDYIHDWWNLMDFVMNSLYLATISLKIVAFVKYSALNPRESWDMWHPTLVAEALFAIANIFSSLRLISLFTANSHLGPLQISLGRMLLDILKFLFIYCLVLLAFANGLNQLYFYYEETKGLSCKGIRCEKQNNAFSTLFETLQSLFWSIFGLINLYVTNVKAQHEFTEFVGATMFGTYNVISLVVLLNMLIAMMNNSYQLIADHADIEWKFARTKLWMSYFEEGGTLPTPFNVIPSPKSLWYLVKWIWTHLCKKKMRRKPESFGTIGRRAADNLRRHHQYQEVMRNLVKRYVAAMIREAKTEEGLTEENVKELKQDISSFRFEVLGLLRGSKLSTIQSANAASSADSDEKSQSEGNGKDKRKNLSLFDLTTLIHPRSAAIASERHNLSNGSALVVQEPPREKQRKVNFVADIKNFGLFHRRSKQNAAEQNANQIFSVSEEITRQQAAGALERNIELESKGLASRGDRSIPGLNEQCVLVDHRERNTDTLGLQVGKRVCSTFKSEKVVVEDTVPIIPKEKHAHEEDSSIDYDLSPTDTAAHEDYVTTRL
Briefly: calcium entry via TRPC4 opening agents – cell-based, HEK293 TRPC4/mu-opioid, Fluo-4 calcium, dose response (AID 434937). The format is functional.

The target in the next test is Apelin receptor (Homo sapiens, UniProt P35414). The test is described as follows: apelin receptor antagonists, arrestin read-out – cell-based, luminescent, enzyme-fragment complementation, selectivity assay for CCR6 antagonist project, SAR follow-up (AID 588359). The class given is functional.
The target of the next test is Beta-galactosidase (Escherichia coli, UniProt Q8VNN2). Briefly: detection-enzyme interference by beta-gal modulators – biochemical, E. coli enzyme, set 3, artefact control for CCR6 antagonist project, dose response (AID 504712). The format is functional.
Test [5] deals with T3, Ubiquitin-conjugating enzyme E2 N (Homo sapiens, UniProt P61088).
T3 sequence (P61088 whole entry): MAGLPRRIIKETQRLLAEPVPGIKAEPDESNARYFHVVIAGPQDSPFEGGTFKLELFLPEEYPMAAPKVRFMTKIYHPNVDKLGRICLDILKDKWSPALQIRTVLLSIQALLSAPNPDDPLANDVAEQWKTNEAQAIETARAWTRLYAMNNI
The class given is functional.

Test [6] has as its target T4, RNA-binding protein pos-1 (Caenorhabditis elegans, UniProt G5EF15).
T4 sequence (G5EF15 whole entry): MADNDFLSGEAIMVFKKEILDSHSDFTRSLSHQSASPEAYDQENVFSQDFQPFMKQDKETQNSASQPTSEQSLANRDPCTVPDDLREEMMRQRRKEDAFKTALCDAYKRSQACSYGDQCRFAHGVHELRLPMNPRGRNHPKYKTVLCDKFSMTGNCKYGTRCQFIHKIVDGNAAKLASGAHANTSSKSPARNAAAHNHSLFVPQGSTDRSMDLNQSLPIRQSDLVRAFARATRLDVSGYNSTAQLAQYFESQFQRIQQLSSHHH
Briefly: disruptors of C. elegans POS-1 RNA interaction – biochemical, fluorescence polarization, dose response (AID 1964).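 Further: purified POS-1 fused to maltose binding protein made in E. coli; potency of compounds blocking POS-1 binding to fluorescent RNA.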

In test [7] the target is T5, Zinc finger protein mex-5 (Caenorhabditis elegans, UniProt Q9XUB2).
T5 sequence (Q9XUB2 whole entry): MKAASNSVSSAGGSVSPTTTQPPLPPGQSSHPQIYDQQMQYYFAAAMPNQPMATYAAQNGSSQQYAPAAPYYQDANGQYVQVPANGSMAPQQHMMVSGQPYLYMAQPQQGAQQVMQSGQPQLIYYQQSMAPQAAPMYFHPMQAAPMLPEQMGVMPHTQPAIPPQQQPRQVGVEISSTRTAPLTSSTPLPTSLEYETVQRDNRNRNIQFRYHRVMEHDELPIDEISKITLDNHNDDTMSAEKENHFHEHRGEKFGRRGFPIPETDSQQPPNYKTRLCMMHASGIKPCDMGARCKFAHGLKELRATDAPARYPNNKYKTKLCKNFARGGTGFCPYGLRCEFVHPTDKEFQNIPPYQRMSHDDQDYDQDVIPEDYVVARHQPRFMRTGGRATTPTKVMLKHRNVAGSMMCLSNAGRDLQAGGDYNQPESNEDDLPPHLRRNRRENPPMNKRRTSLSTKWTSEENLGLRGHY
The test is described as follows: potency of MEX-5 RNA-binding blockers – biochemical, C. elegans, fluorescence polarization, dose response (AID 1960). For orientation: In fluorescence polarisation assays a small probe gives low polarisation when free and higher when bound to something large.

The target in test [8] is T6, Rac GTPase-activating protein 1 (Homo sapiens, UniProt Q9H0H5).
T6 sequence (Q9H0H5 whole entry): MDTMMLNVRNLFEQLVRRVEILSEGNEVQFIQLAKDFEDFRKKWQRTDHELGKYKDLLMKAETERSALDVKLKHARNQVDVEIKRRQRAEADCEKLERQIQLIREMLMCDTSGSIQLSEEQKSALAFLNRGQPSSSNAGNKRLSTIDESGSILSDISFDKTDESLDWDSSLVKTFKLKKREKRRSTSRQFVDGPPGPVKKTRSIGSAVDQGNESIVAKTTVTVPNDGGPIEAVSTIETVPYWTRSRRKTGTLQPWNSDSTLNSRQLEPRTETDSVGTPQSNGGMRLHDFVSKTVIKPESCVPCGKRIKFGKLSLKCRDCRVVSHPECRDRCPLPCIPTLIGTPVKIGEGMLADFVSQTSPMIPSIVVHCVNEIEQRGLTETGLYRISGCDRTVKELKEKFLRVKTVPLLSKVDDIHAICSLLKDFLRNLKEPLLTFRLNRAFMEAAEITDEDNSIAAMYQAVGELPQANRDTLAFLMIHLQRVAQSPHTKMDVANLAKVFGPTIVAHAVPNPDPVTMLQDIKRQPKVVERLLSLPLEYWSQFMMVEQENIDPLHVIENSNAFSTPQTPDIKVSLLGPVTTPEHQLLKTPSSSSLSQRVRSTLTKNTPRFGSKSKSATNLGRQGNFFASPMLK
Briefly: blockers of MgcRacGAP-driven Rac1 GTP hydrolysis – biochemical, ADP Hunter fluorescence, primary and confirmatory, confirmation (AID 624330). The class given is functional.

Test [9] has as its target T7, Acyl-homoserine lactone acylase PvdQ (Pseudomonas aeruginosa (strain LESB58), UniProt Q9I194).
T7 sequence (Q9I194 whole entry): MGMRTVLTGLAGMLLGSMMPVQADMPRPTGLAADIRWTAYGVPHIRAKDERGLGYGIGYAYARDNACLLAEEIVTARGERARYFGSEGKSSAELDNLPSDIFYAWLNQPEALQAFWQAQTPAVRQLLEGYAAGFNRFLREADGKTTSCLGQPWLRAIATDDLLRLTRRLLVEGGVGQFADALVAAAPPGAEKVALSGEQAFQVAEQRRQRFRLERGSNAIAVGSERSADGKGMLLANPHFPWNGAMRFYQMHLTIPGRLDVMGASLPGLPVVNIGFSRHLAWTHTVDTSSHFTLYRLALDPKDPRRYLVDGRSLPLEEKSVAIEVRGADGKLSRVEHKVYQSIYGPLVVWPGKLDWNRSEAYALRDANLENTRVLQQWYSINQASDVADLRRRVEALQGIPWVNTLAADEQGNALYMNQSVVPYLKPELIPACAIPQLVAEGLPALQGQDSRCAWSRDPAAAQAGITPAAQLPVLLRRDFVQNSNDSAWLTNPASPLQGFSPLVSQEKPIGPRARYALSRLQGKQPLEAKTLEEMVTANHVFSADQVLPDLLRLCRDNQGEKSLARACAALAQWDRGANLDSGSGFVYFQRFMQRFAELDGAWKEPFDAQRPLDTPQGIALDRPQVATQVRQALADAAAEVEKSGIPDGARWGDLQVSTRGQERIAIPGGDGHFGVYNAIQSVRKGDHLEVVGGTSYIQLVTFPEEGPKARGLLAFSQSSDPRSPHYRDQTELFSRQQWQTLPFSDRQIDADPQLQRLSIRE
Briefly: PvdQ acylase enzyme activity blockers – biochemical, fluorescence, plate reader and imaging, cherry-picks, dose response (AID 493231).

The subject of the next test is HEK293. The test is described as follows: cells. The format is functional, cell-based. The following applies: Homo sapiens.
Test [10] has as its target Nuclear receptor subfamily 0 group B member 1 (Homo sapiens, UniProt P51843). Briefly: Luminescence-based cell-based high throughput dose response assay for inhibitors of the orphan nuclear receptor subfamily 0, group B, member 1 (DAX1; NR0B1). [Related pubchem assays (depositor defined):AID504766, AID504790]. The class given is functional.
Test [11] is described as follows: Luminescence Cell-Based Dose Confirmation HTS to Identify Inhibitors of Platelet Dense Granule Release. [Related pubchem assays: 1663 (Primary HTS), 1678 (Summary of Project)]. The class given is functional.
A further test concerns Escherichia coli. The test is described as follows: microbe, parasite or virus in culture.
The target of test [12] is Luciferin 4-monooxygenase (Photinus pyralis, UniProt P08659). Briefly: inhibition of purified Photinus pyralis luciferase – biochemical, luminescence, dose response (AID 1891).
The test system of a further test is HeLa. The test is described as follows: ATP-based viability loss in HeLa cells – cell-based, CellTiter-Glo luminescence, cherry-pick samples, cytotoxicity control for MITF activator project, dose response (AID 540259). The class given is functional. Particulars: Homo sapiens.

Sequence of Mu-type opioid receptor (P35372 whole entry): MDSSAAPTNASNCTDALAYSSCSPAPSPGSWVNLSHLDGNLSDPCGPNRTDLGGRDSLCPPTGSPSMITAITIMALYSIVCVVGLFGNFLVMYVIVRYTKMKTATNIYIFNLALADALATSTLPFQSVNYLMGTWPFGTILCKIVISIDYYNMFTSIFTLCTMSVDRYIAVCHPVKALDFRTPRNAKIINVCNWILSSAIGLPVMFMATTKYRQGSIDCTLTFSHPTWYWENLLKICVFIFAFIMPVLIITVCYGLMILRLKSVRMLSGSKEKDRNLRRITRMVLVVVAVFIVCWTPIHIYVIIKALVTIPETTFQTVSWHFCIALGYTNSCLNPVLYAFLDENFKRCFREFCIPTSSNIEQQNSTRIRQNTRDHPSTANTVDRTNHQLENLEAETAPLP
Sequence of 5-hydroxytryptamine receptor 5A (P47898 whole entry): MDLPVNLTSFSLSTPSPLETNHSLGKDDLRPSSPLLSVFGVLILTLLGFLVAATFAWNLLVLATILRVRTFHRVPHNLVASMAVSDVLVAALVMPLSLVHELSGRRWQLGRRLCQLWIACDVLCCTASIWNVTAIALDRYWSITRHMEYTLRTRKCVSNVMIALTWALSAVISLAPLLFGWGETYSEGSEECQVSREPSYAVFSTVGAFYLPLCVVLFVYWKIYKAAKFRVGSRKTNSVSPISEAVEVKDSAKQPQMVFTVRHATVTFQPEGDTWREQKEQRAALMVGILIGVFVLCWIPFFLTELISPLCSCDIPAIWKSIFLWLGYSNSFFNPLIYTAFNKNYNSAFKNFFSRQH
Sequence of Delta-type opioid receptor (P41143 whole entry): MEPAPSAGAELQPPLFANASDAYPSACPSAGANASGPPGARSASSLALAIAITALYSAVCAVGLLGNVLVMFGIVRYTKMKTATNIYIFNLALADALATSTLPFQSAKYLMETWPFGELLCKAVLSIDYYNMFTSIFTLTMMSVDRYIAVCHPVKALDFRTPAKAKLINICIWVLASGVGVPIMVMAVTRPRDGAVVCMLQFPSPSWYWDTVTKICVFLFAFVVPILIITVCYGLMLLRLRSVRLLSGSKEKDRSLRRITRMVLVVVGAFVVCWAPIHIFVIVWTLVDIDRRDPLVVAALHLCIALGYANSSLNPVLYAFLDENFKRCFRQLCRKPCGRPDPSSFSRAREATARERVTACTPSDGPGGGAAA
Sequence of Nuclear receptor subfamily 0 group B member 1 (P51843 whole entry): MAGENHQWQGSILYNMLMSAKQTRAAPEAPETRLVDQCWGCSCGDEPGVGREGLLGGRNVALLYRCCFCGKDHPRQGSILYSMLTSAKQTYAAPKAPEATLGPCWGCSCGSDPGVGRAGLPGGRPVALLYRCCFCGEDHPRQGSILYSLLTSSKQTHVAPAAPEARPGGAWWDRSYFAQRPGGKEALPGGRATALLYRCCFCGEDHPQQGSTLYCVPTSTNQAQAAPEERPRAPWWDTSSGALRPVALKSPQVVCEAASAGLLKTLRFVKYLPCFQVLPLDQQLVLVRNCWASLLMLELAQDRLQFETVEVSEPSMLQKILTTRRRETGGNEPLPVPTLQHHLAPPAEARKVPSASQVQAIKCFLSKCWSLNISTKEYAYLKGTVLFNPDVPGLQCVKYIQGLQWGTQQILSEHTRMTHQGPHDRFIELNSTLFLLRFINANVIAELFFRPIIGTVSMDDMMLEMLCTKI
Sequence of Apelin receptor (P35414 whole entry, the tested form may be a part): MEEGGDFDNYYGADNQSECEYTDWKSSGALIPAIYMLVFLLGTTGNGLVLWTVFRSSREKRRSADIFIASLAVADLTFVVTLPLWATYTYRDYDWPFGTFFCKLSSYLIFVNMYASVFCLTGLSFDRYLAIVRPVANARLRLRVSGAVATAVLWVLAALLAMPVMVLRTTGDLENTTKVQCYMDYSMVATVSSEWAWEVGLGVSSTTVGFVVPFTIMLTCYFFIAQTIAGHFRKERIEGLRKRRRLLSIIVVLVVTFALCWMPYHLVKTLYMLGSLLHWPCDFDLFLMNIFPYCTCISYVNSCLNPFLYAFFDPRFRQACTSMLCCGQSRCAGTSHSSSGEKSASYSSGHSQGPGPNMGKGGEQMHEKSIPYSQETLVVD
Sequence of Luciferin 4-monooxygenase (P08659 whole entry): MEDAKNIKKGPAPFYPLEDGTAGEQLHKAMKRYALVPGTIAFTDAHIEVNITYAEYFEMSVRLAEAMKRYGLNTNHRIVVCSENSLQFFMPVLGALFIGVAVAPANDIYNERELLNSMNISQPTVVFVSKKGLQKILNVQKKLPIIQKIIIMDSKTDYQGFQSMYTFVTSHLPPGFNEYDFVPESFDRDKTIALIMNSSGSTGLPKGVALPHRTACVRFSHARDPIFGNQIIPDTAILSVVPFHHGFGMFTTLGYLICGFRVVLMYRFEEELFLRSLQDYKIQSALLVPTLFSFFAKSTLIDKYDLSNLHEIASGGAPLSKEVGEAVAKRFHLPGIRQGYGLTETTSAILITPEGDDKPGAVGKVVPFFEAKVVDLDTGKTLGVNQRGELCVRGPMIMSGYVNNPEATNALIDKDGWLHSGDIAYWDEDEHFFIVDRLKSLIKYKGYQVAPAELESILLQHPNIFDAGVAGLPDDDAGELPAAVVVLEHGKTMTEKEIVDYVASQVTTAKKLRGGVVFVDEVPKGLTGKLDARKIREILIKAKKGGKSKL
Sequence of Beta-galactosidase (Q8VNN2 whole entry): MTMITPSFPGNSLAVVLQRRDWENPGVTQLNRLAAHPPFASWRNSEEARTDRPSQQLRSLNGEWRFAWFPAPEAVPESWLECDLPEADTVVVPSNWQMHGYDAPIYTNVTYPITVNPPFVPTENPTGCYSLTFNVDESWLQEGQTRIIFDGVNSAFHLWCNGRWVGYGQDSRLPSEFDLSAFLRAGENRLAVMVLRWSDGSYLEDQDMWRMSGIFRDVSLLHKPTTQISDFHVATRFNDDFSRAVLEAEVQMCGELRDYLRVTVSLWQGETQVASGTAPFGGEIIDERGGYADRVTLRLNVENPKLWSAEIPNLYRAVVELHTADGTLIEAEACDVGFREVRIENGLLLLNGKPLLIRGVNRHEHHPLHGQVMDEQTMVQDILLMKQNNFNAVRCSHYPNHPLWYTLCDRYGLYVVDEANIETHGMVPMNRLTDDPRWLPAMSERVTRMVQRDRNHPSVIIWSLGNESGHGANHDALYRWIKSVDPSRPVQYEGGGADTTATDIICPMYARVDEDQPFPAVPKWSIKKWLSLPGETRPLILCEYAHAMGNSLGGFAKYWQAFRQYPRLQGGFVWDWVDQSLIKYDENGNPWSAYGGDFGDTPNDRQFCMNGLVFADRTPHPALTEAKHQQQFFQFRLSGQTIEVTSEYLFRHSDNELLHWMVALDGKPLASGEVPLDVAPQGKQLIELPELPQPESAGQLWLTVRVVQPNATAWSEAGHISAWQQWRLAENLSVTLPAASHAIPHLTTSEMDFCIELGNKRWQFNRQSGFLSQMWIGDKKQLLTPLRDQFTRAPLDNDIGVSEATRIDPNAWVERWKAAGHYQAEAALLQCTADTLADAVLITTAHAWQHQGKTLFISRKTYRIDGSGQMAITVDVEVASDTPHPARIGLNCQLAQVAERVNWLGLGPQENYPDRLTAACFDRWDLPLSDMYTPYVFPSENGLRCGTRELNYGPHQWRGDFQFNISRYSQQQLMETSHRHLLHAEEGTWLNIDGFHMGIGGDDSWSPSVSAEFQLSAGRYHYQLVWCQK

`COc1ccc(/C=C/C(=O)NC(=S)NCCc2ccc(OC)c(OC)c2)cc1`: the EC50 (in general, the midpoint of the concentration-response curve) is 13.6 µM (active) in test [1], > 92.5 µM (inactive) in [2], > 92.5 µM (inactive) at Mu-type opioid receptor and > 92.5 µM (inactive) in test [3].

Turning to `COCCCn1c(N)c(-c2nc3ccccc3n2C)c2nc3ccccc3nc21`, the EC50 was > 92.5 µM (inactive) in test [2]; > 92.5 µM (inactive) at Mu-type opioid receptor; 2.66 µM (active) in test [4]; > 92.5 µM (inactive) in test [3]; 40.4 µM (active) in test [6]; 40.6 µM (active) in [7]. Also, the IC50 (in general, the concentration that inhibits the measured activity by half) is 19.3 µM (active) on Apelin receptor, > 66.6 µM (inactive) on Beta-galactosidase and > 20 µM (inactive) in test [5].

As for `CCOc1ccc(CNC2CCCc3ccccc32)cc1` (centres undefined), the half-maximal inhibitory concentration (IC50) in test [8] is 202 µM (active); with HEK293, > 67.5 µM (inactive); in test [10] it was > 67.5 µM (inactive). In addition, in test [9], the AC50 (in general, the midpoint of the concentration-response curve, whichever way the signal moves) was 12.3 µM (active).

Turning to `O=C(COc1ccc(Cl)cc1Cl)c1ccc[nH]1`, the IC50 (in the test on HEK293; in test [10]) was > 67.6 µM (inactive) each time.

In the case of `COc1ccc(/C=N/Nc2ccccn2)cc1O`, the IC50 in [8] was 70.2 µM (active). Also, the concentration giving a half-maximal response (EC50) in test [11] is 12.5 µM (active); in [12] it was 17.6 µM (active). Also, the concentration at half-maximal activity (AC50) is 31.1 µM (active) with Escherichia coli and 282 µM (active) in the test on HeLa.
